We go through 16 molecules from US20090137572A1, “2-substituted-4-heteroaryl-pyrimidines useful for the treatment of proliferative disorders” (priority 2004, published 2009).

Holding throughout (assay type): biochemical
The target of one assay is T1, Aurora A kinase (Homo sapiens, UniProt O14965).
T1 construct: purchased
T1 sequence (O14965 1-403): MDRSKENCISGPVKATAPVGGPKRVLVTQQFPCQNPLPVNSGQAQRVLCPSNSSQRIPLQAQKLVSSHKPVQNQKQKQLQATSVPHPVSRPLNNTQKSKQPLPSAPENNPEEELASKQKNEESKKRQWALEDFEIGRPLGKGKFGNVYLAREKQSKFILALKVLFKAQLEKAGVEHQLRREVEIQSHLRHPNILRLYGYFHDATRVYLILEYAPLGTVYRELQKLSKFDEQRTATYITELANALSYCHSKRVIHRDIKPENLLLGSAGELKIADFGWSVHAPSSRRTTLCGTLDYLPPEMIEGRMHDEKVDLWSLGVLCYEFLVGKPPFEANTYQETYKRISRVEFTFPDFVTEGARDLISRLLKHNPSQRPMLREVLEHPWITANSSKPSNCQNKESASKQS
The assay can be described thus: Aurora-A (human) kinase assay (Kemptide substrate). To be noted: pIC50 is -log(IC50, M); 15 μM ATP; read-out: Kinase Inhibition pIC50 Aurora A kinase (converted). The method, then:
Aurora-A (human) kinase assay. This was achieved by measurement of incorporation of radioactive phosphate from ATP into Kemptide substrate (LRRASLG), upon phosphorylation by commercially obtained aurora-A kinase. Assays were performed using 96-well plates and appropriate assay buffers (8 mM MOPS, 0.2 mM EDTA, pH 7.0), into which were added 5-10 ng of active enzyme with 200 μM substrate (Kemptide). The reactions were initiated by addition of Mg/ATP mix (10 mM MgAcetate+15 μM ATP with 30-50 kBq per well of [γ-^33P]-ATP) and mixtures incubated for 40 min at room temperature. Reactions were stopped by addition of 3% phosphoric acid, followed by filtration through p81 filterplates (Whatman Polyfiltronics, Kent, UK). After washing 5 times with 75 mM aq orthophosphoric acid and once in methanol, plates were dried, scintillant added and incorporated radioactivity measured in a scintillation counter (TopCount, Packard Instruments, Pangbourne, Berks, UK). Compounds for kinase assay were made up as 10 mM stocks in DMSO and diluted into 10% DMSO in assay buffer.

The next assay deals with CDK9/cyclin T1 (Homo sapiens, UniProt P50750). The assay can be described thus: CDK 9 assay (CTD peptide substrate). As to conditions: read-out: Kinase Inhibition pIC50 CDK9-cyclin T1 (converted). The protocol:
(§1) Kinase assays. The compounds of the invention above were investigated for their ability to inhibit the enzymatic activity of various protein kinases (Table 2). This was achieved by measurement of incorporation of radioactive phosphate from ATP into appropriate polypeptide substrates. Recombinant protein kinases and kinase complexes were produced or obtained commercially. Assays were performed using 96-well plates and appropriate assay buffers (typically 25 mM β-glycerophosphate, 20 mM MOPS, 5 mM EGTA, 1 mM DTT, 1 mM […], pH 7.4), into which were added 2-4 μg of active enzyme with appropriate substrates. The reactions were initiated by addition of Mg/ATP mix (15 mM MgCl2+100 μM ATP with 30-50 kBq per well of [γ-^32P]-ATP) and mixtures incubated as required at 30° C. Reactions were stopped on ice, followed by filtration through p81 filterplates or GF/C filterplates (Whatman Polyfiltronics, Kent, UK). After washing 3 times with 75 mM aq orthophosphoric acid, plates were dried, scintillant added and incorporated radioactivity measured in a scintillation counter (TopCount, Packard Instruments, Pangbourne, Berks, UK). Compounds for kinase assay were made up as 10 mM stocks in DMSO and diluted into 10% DMSO in assay buffer.
(§2) CDK 7 and 9 assays. CTD peptide substrate (biotinyl-Abx-(Tyr-Ser-Pro-Thr-Ser-Pro-Ser)4-NH2; 1-2 mg/mL) and recombinant human CDK7/cyclin H, CDK9/cyclin T1, or CDK9/cyclin K (0.5-2 μg) were incubated for 45 min at 30° C. in the presence of varying amounts of test compound in 20 mM MOPS pH 7.2, 25 mM β-glycerophosphate, 5 mM EGTA, 1 mM DTT, 1 mM sodium vanadate, 15 mM MgCl2, and 100 μM ATP (containing a trace amount of ^32PγATP) in a total volume of 25 μL in a 96-well microtiter plate. The reaction was stopped by placing the plate on ice for 2 min. Avidin (50 μg) was added to each well, and the plate was incubated at room temp for 30 min. The samples were transferred to a 96-well P81 filter plate, and washed (4×200 μL per well) with 75 mM phosphoric acid. Microscint 40 scintillation liquid (50 μL) was added to each well, and the amount of ^32P incorporation for each sample was measured using a Packard Topcount microplate scintillation counter.

A further assay addresses CDK7/cyclin H (Homo sapiens, UniProt P50613). Kind of assay: CDK 7 assay (CTD peptide substrate). As to conditions: read-out: Kinase Inhibition pIC50 CDK7-cyclin H (converted). The method, then: as §1, §2
In a further assay the target is CDK2-cycline E (Homo sapiens, UniProt P24941). The assay can be described thus: Kinase assay (radioactive phosphate incorporation), CDK2-cyclin E. As to conditions: read-out: Kinase Inhibition pIC50 CDK2-cycline E (converted). The method, then: as §1

Structures are written as SMILES.

Sequence of CDK9/cyclin T1 (P50750 whole entry): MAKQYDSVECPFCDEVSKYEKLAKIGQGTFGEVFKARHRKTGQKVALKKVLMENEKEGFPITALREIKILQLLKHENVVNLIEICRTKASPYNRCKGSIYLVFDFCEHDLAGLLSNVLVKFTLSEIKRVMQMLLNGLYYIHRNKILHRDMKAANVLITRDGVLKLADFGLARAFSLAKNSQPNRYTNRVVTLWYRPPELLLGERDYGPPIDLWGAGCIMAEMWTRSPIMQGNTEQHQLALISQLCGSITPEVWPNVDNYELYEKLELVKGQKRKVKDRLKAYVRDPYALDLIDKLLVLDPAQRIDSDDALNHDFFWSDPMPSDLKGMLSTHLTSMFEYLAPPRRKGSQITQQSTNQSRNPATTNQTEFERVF
Sequence of CDK9/cyclin T1 (O60563 whole entry partner): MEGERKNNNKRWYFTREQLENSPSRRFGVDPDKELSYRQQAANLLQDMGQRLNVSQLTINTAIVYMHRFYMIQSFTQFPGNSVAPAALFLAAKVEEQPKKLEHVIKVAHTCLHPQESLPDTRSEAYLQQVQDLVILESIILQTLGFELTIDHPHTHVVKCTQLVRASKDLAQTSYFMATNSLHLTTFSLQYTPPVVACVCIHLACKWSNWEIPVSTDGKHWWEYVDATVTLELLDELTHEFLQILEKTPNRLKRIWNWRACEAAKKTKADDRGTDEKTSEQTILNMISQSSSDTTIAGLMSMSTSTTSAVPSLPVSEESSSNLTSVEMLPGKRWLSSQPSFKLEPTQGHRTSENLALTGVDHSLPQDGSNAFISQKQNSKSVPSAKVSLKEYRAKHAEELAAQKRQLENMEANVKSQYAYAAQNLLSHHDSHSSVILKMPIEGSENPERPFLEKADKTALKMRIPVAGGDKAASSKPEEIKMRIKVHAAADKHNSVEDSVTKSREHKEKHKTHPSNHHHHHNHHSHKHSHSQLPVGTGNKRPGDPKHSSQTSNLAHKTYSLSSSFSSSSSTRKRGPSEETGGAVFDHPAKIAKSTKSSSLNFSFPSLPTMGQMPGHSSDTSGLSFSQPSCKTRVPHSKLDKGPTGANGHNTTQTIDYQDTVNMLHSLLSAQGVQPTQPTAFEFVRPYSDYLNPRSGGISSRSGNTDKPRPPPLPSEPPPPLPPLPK
Sequence of CDK7/cyclin H (P50613 whole entry): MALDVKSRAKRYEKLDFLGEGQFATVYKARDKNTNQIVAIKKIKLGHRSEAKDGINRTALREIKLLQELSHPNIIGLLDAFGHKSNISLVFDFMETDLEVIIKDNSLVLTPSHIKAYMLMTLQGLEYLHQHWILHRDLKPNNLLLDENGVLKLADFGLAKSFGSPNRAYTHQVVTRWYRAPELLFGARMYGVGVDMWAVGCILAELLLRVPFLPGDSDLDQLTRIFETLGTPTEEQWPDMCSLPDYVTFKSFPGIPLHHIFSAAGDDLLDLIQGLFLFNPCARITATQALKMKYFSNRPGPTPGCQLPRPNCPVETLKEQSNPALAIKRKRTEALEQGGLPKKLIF
Sequence of CDK7/cyclin H (P51946 whole entry partner): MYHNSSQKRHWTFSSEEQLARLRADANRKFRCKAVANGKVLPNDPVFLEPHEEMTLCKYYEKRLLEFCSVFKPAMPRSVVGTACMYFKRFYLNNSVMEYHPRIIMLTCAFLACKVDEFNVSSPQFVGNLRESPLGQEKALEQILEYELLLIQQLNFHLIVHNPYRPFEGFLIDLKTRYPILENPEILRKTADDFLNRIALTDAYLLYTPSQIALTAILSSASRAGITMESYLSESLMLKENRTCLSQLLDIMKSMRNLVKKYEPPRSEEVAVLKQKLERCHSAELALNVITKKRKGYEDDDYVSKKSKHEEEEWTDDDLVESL

On to `COc1cc(Nc2nccc(-c3sc(CO)nc3C)n2)ccc1N1CCCCC1` [Compound 216, {5-[2-(3-Methoxy-4-piperidin-1-yl-phenylamino)-pyrimidin-4-yl]-4-methyl-thiazol-2-yl}-methanol], for which the IC50 on Aurora A kinase was 0.0631 µM; at CDK9/cyclin T1, 0.631 µM; at CDK7/cyclin H, 1.58 µM; on CDK2-cycline E, 1.58 µM.
Regarding `COc1cc(Nc2nccc(-c3sc(N)nc3C)n2)ccc1N1CCOCC1` [Compound 182, [4-(2-Amino-4-methyl-thiazol-5-yl)-pyrimidin-2-yl]-(3-methoxy-4-morpholin-4-yl-phenyl)-amine], the IC50 on Aurora A kinase is 0.0398 µM; at CDK9/cyclin T1, 1 µM; at CDK7/cyclin H, 2.51 µM; on CDK2-cycline E, 0.794 µM.
For `CNc1nc(C)c(-c2ccnc(Nc3cccc(S(=O)(=O)Nc4cccc(OC)c4)c3)n2)s1` [Compound 32, N-(3-Methoxy-phenyl)-3-[4-(4-methyl-2-methylamino-thiazol-5-yl)-pyrimidin-2-ylamino]-benzenesulfonamide], the results for the IC50 at Aurora A kinase, on CDK9/cyclin T1 and on CDK7/cyclin H were 0.0126 µM, 2.51 µM and 5.01 µM, respectively.
As for `CCN(C)c1nc(C)c(-c2ccnc(Nc3ccc(N4CCOCC4)cc3)n2)s1` [Compound 120, {4-[2-(Ethyl-methyl-amino)-4-methyl-thiazol-5-yl]-pyrimidin-2-yl}-(4-morpholin-4-yl-phenyl)-amine], the IC50 was 0.0316 µM on Aurora A kinase, 2 µM at CDK9/cyclin T1, 3.16 µM on CDK7/cyclin H and 0.794 µM on CDK2-cycline E.
In the case of `Cc1nc(C)c(-c2ccnc(Nc3ccc(N4CCN(CC(=O)NC(C)C)CC4)cc3)n2)s1` [Compound 190, 2-(4-{4-[4-(2,4-Dimethyl-thiazol-5-yl)-pyrimidin-2-ylamino]-phenyl}-piperazin-1-yl)-N-isopropyl-acetamide], the IC50 was 0.0631 µM on Aurora A kinase, 2.51 µM at CDK9/cyclin T1, 7.94 µM at CDK7/cyclin H and 1 µM on CDK2-cycline E.
Taken in the same sequence, the figures for `Cc1nc(N)sc1-c1ccnc(Nc2ccc(N3CCCCC3)cc2)n1` [Compound 195, [4-(2-Amino-4-methyl-thiazol-5-yl)-pyrimidin-2-yl]-(4-piperidin-1-yl-phenyl)-amine] were 0.0398 µM, 0.398 µM, 1.58 µM and 0.794 µM.
Regarding `Cc1cc(Nc2nccc(-c3sc(CO)nc3C)n2)ccc1N1CCOCC1` [Compound 217, {4-Methyl-5-[2-(3-methyl-4-morpholin-4-yl-phenylamino)-pyrimidin-4-yl]-thiazol-2-yl}-methanol], the IC50 is 0.0501 µM on Aurora A kinase, 3.98 µM on CDK9/cyclin T1, 7.94 µM at CDK7/cyclin H and 1.26 µM on CDK2-cycline E.
Taken in the same sequence, the figures for `Cc1nc(C)c(-c2ccnc(Nc3ccc(N4CCN(Cc5ccccc5)CC4)cc3)n2)s1` [Compound 114, [4-(4-Benzyl-piperazin-1-yl)-phenyl]-[4-(2,4-dimethyl-thiazol-5-yl)-pyrimidin-2-yl]-amine] were 0.316 µM, 1.58 µM, 0.126 µM and 1.26 µM.
The matching figures for `Cc1nc(N)sc1-c1ccnc(Nc2ccc(N3CCOCC3)c(C(N)=O)c2)n1` [Compound 211, 5-[4-(2-Amino-4-methyl-thiazol-5-yl)-pyrimidin-2-ylamino]-2-morpholin-4-yl-benzamide]: 0.158 µM, 2 µM, 6.31 µM and 2.51 µM.
`CCNc1nc(C)c(-c2ccnc(Nc3ccc(N4CCOCC4)c(C(N)=O)c3)n2)s1` [Compound 212, 5-[4-(2-Ethylamino-4-methyl-thiazol-5-yl)-pyrimidin-2-ylamino]-2-morpholin-4-yl-benzamide]: the IC50 was 0.0631 µM at Aurora A kinase, 1.26 µM at CDK9/cyclin T1 and 1 µM on CDK2-cycline E.
Consider `COc1cc(Nc2nccc(-c3sc(C)nc3C)n2)ccc1N1CCOCC1` [Compound 173, [4-(2,4-Dimethyl-thiazol-5-yl)-pyrimidin-2-yl]-(3-methoxy-4-morpholin-4-yl-phenyl)-amine], for which the IC50 at Aurora A kinase was 0.0398 µM; on CDK9/cyclin T1, 3.16 µM; on CDK7/cyclin H, 3.16 µM; on CDK2-cycline E it was 0.794 µM.
As to `Cc1nc(CO)sc1-c1ccnc(Nc2ccc(N3CCCCC3)cc2)n1` [Compound 197, {4-Methyl-5-[2-(4-piperidin-1-yl-phenylamino)-pyrimidin-4-yl]-thiazol-2-yl}-methanol], the IC50 on Aurora A kinase was 0.1 µM; on CDK9/cyclin T1, 3.16 µM; at CDK7/cyclin H, 7.94 µM; at CDK2-cycline E, 2.51 µM.
In the case of `Cc1nc(CO)sc1-c1ccnc(Nc2ccc(N3CCOCC3)cc2)n1` [Compound 188, {4-Methyl-5-[2-(4-morpholin-4-yl-phenylamino)-pyrimidin-4-yl]-thiazol-2-yl}-methanol], the IC50 at Aurora A kinase was 0.0794 µM; at CDK9/cyclin T1, 3.98 µM; at CDK2-cycline E it was 1.58 µM.
The matching figures for `CCOC(=O)N1CCN(c2ccc(Nc3nccc(-c4sc(C)nc4C)n3)cc2)CC1` [Compound 189, 4-{4-[4-(2,4-Dimethyl-thiazol-5-yl)-pyrimidin-2-ylamino]-phenyl}-piperazine-1-carboxylic acid ethyl ester]: 0.1 µM, 2 µM and 2 µM.
Taken in the same sequence, the figures for `Cc1nc(C)c(-c2ccnc(Nc3ccc(N4CCN(C(=O)C5CC5)CC4)cc3)n2)s1` [Compound 213, Cyclopropyl-(4-{4-[4-(2,4-dimethyl-thiazol-5-yl)-pyrimidin-2-ylamino]-phenyl}-piperazin-1-yl)-methanone] were 0.0398 µM, 2.51 µM and 1.58 µM.
`CC(=O)N1CCN(c2ccc(Nc3nccc(-c4sc(N(C)Cc5ccccc5)nc4C)n3)cc2)CC1` [Compound 122, 1-[4-(4-{4-[2-(Benzyl-methyl-amino)-4-methyl-thiazol-5-yl]-pyrimidin-2-ylamino}-phenyl)-piperazin-1-yl]-ethanone]: the IC50 at Aurora A kinase is 0.2 µM; on CDK9/cyclin T1, 1.26 µM; on CDK7/cyclin H it was 1.58 µM; on CDK2-cycline E, 2 µM.
